Assay results reported in patent US20230346883A1, “COMPOSITIONS FOR AND METHODS OF TREATMENT WITH MUTANT A1 ADENOSINE RECEPTOR PLASMID cDNAs” (Endacea, Inc., priority 2022, published 2023).

Tested on: PC3 Tumors (Human Prostate Carcinoma)
Assay: Treatment of PC3 xenograft tumors in athymic nude mice, tumor volume
Type: in vivo
Conditions: dosed twice/week
Procedure: • 1. Animals: • 46 Athymic nude mice (ENVIGO, male, 5-6 weeks old, R #: 4269, PO #: 236172) were used in this study. All mice were ear tagged for identification purposes. • 2. Animal Husbandry: • Upon arrival, animals were examined to ensure that they were healthy. The animals were housed in autoclaved solid floor polycarbonate cages. Housing and sanitation were performed. All animal handling was performed in a laminar flow hood. Animals were housed in filter-topped cages within a HEPA filtered clean room. • 3. Cell Culture and Implantation: • PC3 cell line was obtained from American Type Culture Collection (Manassas, VA). The cells were cultured in 75 cm^2 flask containing Eagle's Minimum Essential Medium supplemented with 10% fetal bovine calf serum (FBS) and incubated at 37° C. in humidified atmosphere of 5% CO2. As cells became 80% confluent, cultures were expanded to 150 cm^2 flasks, and expanded further until sufficient cells were available for injection. • Cancer cells were subcutaneously injected into right flank, 10 million cells/each mouse for PC3 cells. • 4. Assignment to Treatment Groups: • The animals were ear tagged for identification purposes. The animals were assigned to 4 study groups with 10 mice in each group based upon tumor volume. • 5. The mice were dosed twice a week for 6 weeks.
The Paclitaxel was stored at ambient temperature. Lipid nanoparticle (LNP) suspensions were stored at 4° C. Unopened vials were maintained in their original container at 4° C. until ready for use. 50 μl of LNP treatment was drawn via large bore needle (16G needle) from vial. All LNP treatments were allowed to reach room temperature by standing at ambient temperature. There was no heating. The large bore needle was replaced with a small-bore needle (25G) for tumor injection. • 6. Tumor Monitoring: • The xenograft tumors were measured three times a week with a digital caliper. • Tumor volumes were calculated using the formula:
Tumor Volume=length×width×width×½ • 7. Statistical Analysis: • Tumor sizes and body weights were analyzed using Student's t-test. P values <0.05 were considered as statistically significant.

## CC(=O)O[C@H]1C(=O)[C@@]2(C)[C@H]([C@H](OC(=O)c3ccccc3)[C@]3(O)C[C@H](OC(=O)[C@H](O)[C@@H](NC(=O)c4ccccc4)c4ccccc4)C(C)=C1C3(C)C)[C@]1(OC(C)=O)CO[C@@H]1C[C@@H]2O [Paclitaxel]
Therapy day 0
  Average Tumor Volume (Mean): 108.0 Mm^3
Therapy day 3
  Average Tumor Volume (Mean): 105.7 Mm^3
Therapy day 5
  Average Tumor Volume (Mean): 111.7 Mm^3
Therapy day 7
  Average Tumor Volume (Mean): 129.6 Mm^3
Therapy day 10
  Average Tumor Volume (Mean): 108.4 Mm^3
Therapy day 12
  Average Tumor Volume (Mean): 98.1 Mm^3
Therapy day 14
  Average Tumor Volume (Mean): 84.2 Mm^3
Therapy day 17
  Average Tumor Volume (Mean): 66.6 Mm^3
Therapy day 19
  Average Tumor Volume (Mean): 61.8 Mm^3
Therapy day 21
  Average Tumor Volume (Mean): 56.6 Mm^3
Therapy day 24
  Average Tumor Volume (Mean): 48.7 Mm^3
Therapy day 26
  Average Tumor Volume (Mean): 34.6 Mm^3
Therapy day 28
  Average Tumor Volume (Mean): 31.1 Mm^3
Therapy day 31
  Average Tumor Volume (Mean): 26.6 Mm^3
Therapy day 35
  Average Tumor Volume (Mean): 25.3 Mm^3
Therapy day 38
  Average Tumor Volume (Mean): 24.4 Mm^3
Therapy day 40
  Average Tumor Volume (Mean): 24.2 Mm^3
Therapy day 42
  Average Tumor Volume (Mean): 27.2 Mm^3
Therapy day 45
  Average Tumor Volume (Mean): 17.8 Mm^3
